This passage reports IC50 results from patent publication US8952180B2, “Pyrrolinone carboxamide compounds useful as endothelial lipase inhibitors” (Bristol-Myers Squibb Company, priority 2011, dated 2015).

The target in the test is T1, endothelial lipase (EL) (Homo sapiens, UniProt Q9Y5X9).
T1 construct: HT-1080 cells, which were transformed by RAGE technology (Athersys) to overexpress endogenous EL; endogenous in cells; conditioned medium used as the enzyme source
T1 sequence (Q9Y5X9 21-500): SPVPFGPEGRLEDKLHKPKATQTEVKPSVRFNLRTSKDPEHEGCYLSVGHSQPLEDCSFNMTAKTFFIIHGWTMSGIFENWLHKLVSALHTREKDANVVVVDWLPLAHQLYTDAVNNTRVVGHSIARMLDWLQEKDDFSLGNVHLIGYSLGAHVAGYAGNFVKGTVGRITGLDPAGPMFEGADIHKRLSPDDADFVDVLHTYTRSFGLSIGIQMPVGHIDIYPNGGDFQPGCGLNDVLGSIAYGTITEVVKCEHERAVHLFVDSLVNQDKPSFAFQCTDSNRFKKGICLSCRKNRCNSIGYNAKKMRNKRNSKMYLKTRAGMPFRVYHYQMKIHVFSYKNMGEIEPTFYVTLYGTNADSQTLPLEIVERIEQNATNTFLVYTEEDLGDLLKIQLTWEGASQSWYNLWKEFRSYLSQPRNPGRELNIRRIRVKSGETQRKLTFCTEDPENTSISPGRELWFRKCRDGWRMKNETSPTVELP
Put plainly: Endothelial lipase (EL) enzymatic assay with fluorescent substrate A10070 in DMPG vesicles. Type of test: biochemical. Conditions: conditioned media from HT-1080 cells overexpressing endogenous EL; 20 min preincubation at 37° C.; read-out: HLE_EL_CRC IC50. Here is the method: Endothelial lipase activity was measured using a fluorescent substrate, A10070, (Invitrogen, CA) doped into an artificial vesicle containing DMPG (Avanti Polar Lipids) as the excipient. Vesicles were prepared by combining 285 uL of 1 mM DMPG in a 1:1 mixture of MeOH and CHCl3 with 15 uL of 1 mM A10070 in a 1:1 mixture of MeOH and CHCl3. The mixture was dried under nitrogen and resuspended in 150 uL of 50 mM HEPES pH 8.0 buffer containing 100 mM NaCl and 0.2 mM EDTA. The sample was allowed to sit at rt for 15 min and then was sonicated 3×4 mins on ice with a Branson Sonicator using duty cycle 1. This preparation provides vesicles with a mole fraction of 0.05 for the FRET substrate.
The enzymatic assay was measured using white, opaque 96-well half area plates. Each well contained 60 uL of assay buffer (50 mM HEPES pH 8.0, 50 mM NaCl and 1 mM CaCl2) and 2 ul of a DMSO solution containing compound of interest. Conditioned media obtained from HT-1080 cells, which were transformed by RAGE technology (Athersys) to overexpress endogenous EL, was added and the reaction was allowed to incubate for 20 min at 37° C. with gentle agitation. The reaction was started by the addition of 20 uL of a 1:4 dilution of vesicles. The final total reaction volume was 100 uL. The reaction rates were measured on a Gemini plate reader with an excitation wavelength of 488 nm and a emission of 530 nm. Readings were taken every 20 seconds for 10 min with agitation between each reading. The slope of the linear portion of the readout was used to calculate the rate of the reaction.
For the compound `O=C(NCCCOc1ccccc1)C1=C(O)C(=O)N(CC(F)(F)F)C1` [Example 299, 4-hydroxy-5-oxo-N-(3-phenoxypropyl)-1-(2,2,2-trifluoroethyl)-2,5-dihydro-1H-pyrrole-3-carboxamide], the IC50 came out at 2740 nM.

Take `Cc1nc2cc(C#CCNC(=O)C3=C(O)C(=O)N(C)C3)ccc2s1` [Example 247, 4-hydroxy-1-methyl-N-(3-(2-methylbenzo[d]thiazol-5-yl)prop-2-ynyl)-5-oxo-2,5-dihydro-1H-pyrrole-3-carboxamide]: the IC50 was 8380 nM.

For the compound `CCN1CC(C(=O)NCCCN(C)c2ccccc2)=C(O)C1=O` [Example 182, 1-ethyl-4-hydroxy-N-(3-(methyl(phenyl)amino)propyl)-5-oxo-2,5-dihydro-1H-pyrrole-3-carboxamide], the IC50 was determined as 3650 nM.

As to `CC(=O)N(C)CCN1CC(C(=O)NC(C)CCc2ccc(Cl)c(Cl)c2)=C(O)C1=O` (centres unmarked) [Example 280, N-(4-(3,4-dichlorophenyl)butan-2-yl)-4-hydroxy-1-(2-(N-methylacetamido)ethyl)-5-oxo-2,5-dihydro-1H-pyrrole-3-carboxamide], the IC50 stood at 7300 nM.

For `Cc1ccc(C#CCNC(=O)C2=C(O)C(=O)N(C)C2)cc1C(F)(F)F` [Example 248, 4-hydroxy-1-methyl-N-(3-(4-methyl-3-(trifluoromethyl)phenyl)prop-2-ynyl)-5-oxo-2,5-dihydro-1H-pyrrole-3-carboxamide], the IC50 was found to be 4660 nM.

Take `CC(CCc1ccc(Cl)c(Cl)c1)NC(=O)C1=C(O)C(=O)N(Cc2c[nH]nn2)C1` (centres unmarked) [Example 272, 1-((1H-1,2,3-triazol-4-yl)methyl)-N-(4-(3,4-dichlorophenyl)butan-2-yl)-4-hydroxy-5-oxo-2,5-dihydro-1H-pyrrole-3-carboxamide]: the IC50 came out at 3440 nM.

Take `O=C(NCCCc1ccc(Cl)c(Cl)c1)C1=C(O)C(=O)N(CC2CCCCC2)C1` [Example 48, 1-(cyclohexylmethyl)-N-(3-(3,4-dichlorophenyl)propyl)-4-hydroxy-5-oxo-2,5-dihydro-1H-pyrrole-3-carboxamide]: the IC50 is 5.73 nM.

For the compound `CC(CCc1ccc(Cl)c(Cl)c1)NC(=O)C1=C(O)C(=O)N(CCNC(=O)c2cc(F)cc(C(F)(F)F)c2)C1` (centres unmarked) [Example 273, N-(4-(3,4-dichlorophenyl)butan-2-yl)-1-(2-(3-fluoro-5-(trifluoromethyl)benzamido)ethyl)-4-hydroxy-5-oxo-2,5-dihydro-1H-pyrrole-3-carboxamide], the IC50 came out at 2680 nM.

On to `CCN1CC(C(=O)NCCc2ccc(S(N)(=O)=O)cc2)=C(O)C1=O` [Example 181, 1-ethyl-4-hydroxy-5-oxo-N-(4-sulfamoylphenethyl)-2,5-dihydro-1H-pyrrole-3-carboxamide], for which the IC50 was determined as 581 nM.

On to `CCN1CC(C(=O)NCCCc2ccc(Cl)c(Cl)c2)=C(NCCCc2ccc(Cl)c(Cl)c2)C1=O` [Example 179, N-(3-(3,4-dichlorophenyl)propyl)-4-(3-(3,4-dichlorophenyl)-propylamino)-1-ethyl-5-oxo-2,5-dihydro-1H-pyrrole-3-carboxamide], for which the IC50 came to 546 nM.

On to `O=C(NCCCc1ccc(Cl)c(Cl)c1)C1=C(O)C(=O)N(CCOc2ccccc2)C1` [Example 61, N-(3-(3,4-dichlorophenyl)propyl)-4-hydroxy-5-oxo-1-(2-phenoxyethyl)-2,5-dihydro-1H-pyrrole-3-carboxamide], for which the IC50 is 5.44 nM.

Consider `CN1CC(C(=O)NC(CCc2ccc(Cl)c(Cl)c2)C2CC2)=C(O)C1=O` (centres unmarked) [Example 233, N-(1-cyclopropyl-3-(3,4-dichlorophenyl)propyl)-4-hydroxy-1-methyl-5-oxo-2,5-dihydro-1H-pyrrole-3-carboxamide], for which the IC50 stood at 6280 nM.

For the compound `CCN1CC(C(=O)NC[C@H]2CCc3ccccc3O2)=C(O)C1=O` [Example 297, (R)-N-(chroman-2-ylmethyl)-1-ethyl-4-hydroxy-5-oxo-2,5-dihydro-1H-pyrrole-3-carboxamide], the IC50 was determined as 6520 nM.

As for `CC1C(C(=O)NCCCc2ccc(Cl)c(Cl)c2)=C(O)C(=O)N1CCOc1ccccc1` (centres unmarked) [Example 194, N-(3-(3,4-dichlorophenyl)propyl)-4-hydroxy-2-methyl-5-oxo-1-(2-phenoxyethyl)-2,5-dihydro-1H-pyrrole-3-carboxamide], the IC50 stood at 466 nM.

In the case of `C[C@@H](NC(=O)C1=C(O)C(=O)N(CC(F)(F)F)C1)c1ccc2ccccc2c1` [Example 300, (R)-4-hydroxy-N-(1-(naphthalen-2-yl)ethyl)-5-oxo-1-(2,2,2-trifluoroethyl)-2,5-dihydro-1H-pyrrole-3-carboxamide], the concentration for half-maximal inhibition (IC50) is 3810 nM.

For the compound `CC(CCc1ccc(Cl)c(Cl)c1)NC(=O)C1=C(O)C(=O)N([C@H]2CCc3ccc(C(F)(F)F)cc32)C1` (stereo partly drawn) [Example 347, N-(4-(3,4-dichlorophenyl)butan-2-yl)-4-hydroxy-5-oxo-1-((S)-6-(trifluoromethyl)-2,3-dihydro-1H-inden-1-yl)-2,5-dihydro-1H-pyrrole-3-carboxamide], the IC50 came to 500 nM.

Regarding `CN1CC(C(=O)NC(CCc2ccc(Cl)c(Cl)c2)C2CC2)=C(O)C1=O` (centres unmarked) [Example 232, N-(1-cyclopropyl-3-(3,4-dichlorophenyl)propyl)-4-hydroxy-1-methyl-5-oxo-2,5-dihydro-1H-pyrrole-3-carboxamide], the IC50 was found to be 5460 nM.

Regarding `CC(CCc1ccc(Cl)c(Cl)c1)NC(=O)C1=C(O)C(=O)N(CCC(=O)O)C1` (centres unmarked) [Example 344, 3-(4-(4-(3,4-dichlorophenyl)butan-2-ylcarbamoyl)-3-hydroxy-2-oxo-2,5-dihydro-1H-pyrrol-1-yl) propanoic acid], the IC50 stood at 575 nM.

Regarding `CCOC(=O)[C@H](Cc1ccccc1)N1CC(C(=O)NCCCc2ccc(Cl)c(Cl)c2)=C(O)C1=O` [Example 138, (S)-ethyl 2-(4-(3-(3,4-dichlorophenyl)propylcarbamoyl)-3-hydroxy-2-oxo-2,5-dihydro-1H-pyrrol-1-yl)-3-phenylpropanoate], the IC50 was found to be 526 nM.

Consider `C=CC(CCc1ccc(Cl)c(Cl)c1)NC(=O)C1=C(O)C(=O)N(C)C1` (centres unmarked) [Example 236, N-(5-(3,4-dichlorophenyl)pent-1-en-3-yl)-4-hydroxy-1-methyl-5-oxo-2,5-dihydro-1H-pyrrole-3-carboxamide], for which the IC50 came out at 493 nM.
